Laboratory results from US11479802B2, “Assays for screening activity of modulators of members of the hydroxy steroid (17-beta) dehydrogenase (HSD17B) family” (Regeneron Pharmaceuticals, Inc., priority 2017, dated 2022).

Experiments:
human HSD17B13 = molecular target: T1, human HSD17B13 (Homo sapiens, UniProt Q7Z5P4); experiment: Substrate screening of steroid and bioactive lipid libraries against purified recombinant HSD17B13 (NADH-linked luciferase assay); type: biochemical; conditions: Steroid Library, 50 μM steroid; for HSD17B13 Enzymatic Activity Relative Light Units: 500 μM NAD+, 100 ng enzyme, 3 hours at 23° C.; for HSD17B13 Enzymatic Activity Percent Estradiol Control: normalized to 50 μM estradiol after subtraction of 5% DMSO
T1 sequence (Q7Z5P4 20-300): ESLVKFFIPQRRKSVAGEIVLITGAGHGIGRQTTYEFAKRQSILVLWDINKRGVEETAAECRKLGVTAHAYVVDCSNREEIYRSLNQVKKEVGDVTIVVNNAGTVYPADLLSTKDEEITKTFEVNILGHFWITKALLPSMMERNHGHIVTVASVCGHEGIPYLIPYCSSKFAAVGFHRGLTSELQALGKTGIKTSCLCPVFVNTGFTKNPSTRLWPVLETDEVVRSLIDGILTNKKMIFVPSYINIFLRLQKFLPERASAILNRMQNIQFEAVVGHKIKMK
How it was run: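 Substrates (bioactive lipids 5 μM, steroids 50 μM; 5% DMSO) tested with 500 μM NAD+ and 100 ng recombinant human HSD17B13 in 0.2 M Tris-HCl pH 7.5, 3 h, 23° C. Luminescent NADH detection followed 1 h later; RLU normalized to estradiol (50 μM, 100%) and DMSO (0%) controls.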

HSD17B1 [1] = molecular target: T2, HSD17B1 (Homo sapiens, UniProt P14061); experiment: Cell-based assay of estrone to estradiol conversion by HSD17B1 (LC-MS); conditions: over 48 hour period
T2 construct: made in house
T2 sequence (P14061 1-328): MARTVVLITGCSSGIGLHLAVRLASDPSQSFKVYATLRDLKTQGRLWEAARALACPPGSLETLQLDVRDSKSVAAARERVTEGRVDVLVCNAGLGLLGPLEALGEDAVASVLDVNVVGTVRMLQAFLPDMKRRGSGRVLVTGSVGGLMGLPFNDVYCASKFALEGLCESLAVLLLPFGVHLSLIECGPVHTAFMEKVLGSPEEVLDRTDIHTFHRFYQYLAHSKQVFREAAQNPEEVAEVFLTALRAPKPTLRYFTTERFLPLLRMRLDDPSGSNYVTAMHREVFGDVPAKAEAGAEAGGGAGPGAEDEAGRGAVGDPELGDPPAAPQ
Excerpt: The capacity of HSD17B1 to convert estrone to estradiol, and the capacity of equilin to inhibit HSD17B1 was confirmed in a cell-based assay. Liquid chromatography and mass spectrometry (LC-MS) was used to measure estrone and estradiol concentration over time.

HSD17B10 = molecular target: T3, HSD17B10 (Homo sapiens, UniProt Q99714); experiment: Steroid substrate panel against HSD17B family member B10; type: biochemical; conditions: substrate at 50 μM; estradiol set as 100%
T3 construct: made in house
T3 sequence (Q99714 1-261): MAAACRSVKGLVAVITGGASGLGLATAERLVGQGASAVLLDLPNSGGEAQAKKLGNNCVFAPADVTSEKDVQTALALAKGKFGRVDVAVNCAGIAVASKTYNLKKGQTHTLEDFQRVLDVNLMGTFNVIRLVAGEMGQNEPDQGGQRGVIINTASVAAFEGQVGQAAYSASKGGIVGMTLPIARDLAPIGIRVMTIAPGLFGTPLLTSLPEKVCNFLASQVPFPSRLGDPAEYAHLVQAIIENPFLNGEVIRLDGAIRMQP

HSD17B5 = molecular target: T4, HSD17B5 (Homo sapiens, UniProt P42330); experiment: Steroid substrate panel against HSD17B family member B5; type: biochemical; conditions: substrate at 50 μM; estradiol set as 100%
T4 construct: made in house
T4 sequence (P42330 1-323): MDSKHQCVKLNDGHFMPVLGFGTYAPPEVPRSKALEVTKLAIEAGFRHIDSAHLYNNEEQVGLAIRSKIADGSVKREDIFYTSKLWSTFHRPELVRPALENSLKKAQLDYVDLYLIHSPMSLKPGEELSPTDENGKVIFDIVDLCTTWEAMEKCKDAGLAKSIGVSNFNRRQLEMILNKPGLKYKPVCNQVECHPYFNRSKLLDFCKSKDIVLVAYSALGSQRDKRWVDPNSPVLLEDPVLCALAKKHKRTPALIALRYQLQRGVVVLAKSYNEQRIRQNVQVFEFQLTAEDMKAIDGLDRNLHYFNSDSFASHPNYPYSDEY

[2] = molecular target: T5, HEK293 cells overexpressing HSD17B13 isoform A (Homo sapiens, UniProt Q7Z5P4); experiment: HEK293 cell-based substrate consumption assay (LC-MS); conditions: 1 μM substrate, 2 hours or 48 hours
T5 construct: expressed in transfected cells; host or cells: HEK293
T5 sequence (Q7Z5P4 20-300): T1 sequence (Q7Z5P4 20-300)

HSD17B4 = molecular target: T6, HSD17B4 (Homo sapiens, UniProt P51659); experiment: Steroid substrate panel against HSD17B family member B4; type: biochemical; conditions: substrate at 50 μM; estradiol set as 100%
T6 construct: made in house
T6 sequence (P51659 1-736): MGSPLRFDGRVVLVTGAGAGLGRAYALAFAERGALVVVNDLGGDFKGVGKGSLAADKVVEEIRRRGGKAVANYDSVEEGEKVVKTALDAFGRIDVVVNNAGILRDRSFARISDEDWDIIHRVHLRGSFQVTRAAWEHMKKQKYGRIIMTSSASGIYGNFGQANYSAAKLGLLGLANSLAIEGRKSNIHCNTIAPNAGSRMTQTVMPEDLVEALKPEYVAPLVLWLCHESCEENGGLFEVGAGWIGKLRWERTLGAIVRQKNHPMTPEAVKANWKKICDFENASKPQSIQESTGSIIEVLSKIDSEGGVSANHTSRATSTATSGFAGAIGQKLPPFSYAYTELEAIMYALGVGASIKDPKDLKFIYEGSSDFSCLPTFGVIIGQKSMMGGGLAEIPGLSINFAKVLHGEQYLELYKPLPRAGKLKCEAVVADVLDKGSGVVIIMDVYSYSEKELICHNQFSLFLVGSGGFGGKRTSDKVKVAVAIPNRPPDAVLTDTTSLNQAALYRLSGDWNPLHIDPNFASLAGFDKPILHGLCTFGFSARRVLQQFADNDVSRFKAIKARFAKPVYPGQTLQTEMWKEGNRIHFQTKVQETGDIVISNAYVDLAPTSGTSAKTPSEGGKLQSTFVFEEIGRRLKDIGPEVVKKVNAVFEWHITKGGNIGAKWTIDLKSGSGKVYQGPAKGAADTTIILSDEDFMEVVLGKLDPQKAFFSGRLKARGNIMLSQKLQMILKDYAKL

HSD17B1 [3] = molecular target: T2, HSD17B1; experiment: Steroid substrate panel against HSD17B family member B1; type: biochemical; conditions: substrate at 50 μM; estradiol set as 100%
HSD17B11 = molecular target: T7, HSD17B11 (Homo sapiens, UniProt Q8NBQ5); experiment: Steroid substrate panel against HSD17B family member B11; type: biochemical; conditions: substrate at 50 μM; estradiol set as 100%
T7 construct: made in house
T7 sequence (Q8NBQ5 20-300): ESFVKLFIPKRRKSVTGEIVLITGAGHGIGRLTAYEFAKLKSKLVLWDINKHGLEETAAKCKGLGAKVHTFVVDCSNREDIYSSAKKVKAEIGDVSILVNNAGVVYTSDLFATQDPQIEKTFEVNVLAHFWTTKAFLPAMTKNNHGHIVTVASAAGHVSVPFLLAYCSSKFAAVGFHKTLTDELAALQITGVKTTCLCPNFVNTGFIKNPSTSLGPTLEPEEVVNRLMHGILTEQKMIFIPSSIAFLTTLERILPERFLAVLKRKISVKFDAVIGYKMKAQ

HSD17B2 = molecular target: T8, HSD17B2 (Homo sapiens, UniProt P37059); experiment: Steroid substrate panel against HSD17B family member B2; type: biochemical; conditions: substrate at 50 μM; estradiol set as 100%
T8 construct: made in house
T8 sequence (P37059 1-387): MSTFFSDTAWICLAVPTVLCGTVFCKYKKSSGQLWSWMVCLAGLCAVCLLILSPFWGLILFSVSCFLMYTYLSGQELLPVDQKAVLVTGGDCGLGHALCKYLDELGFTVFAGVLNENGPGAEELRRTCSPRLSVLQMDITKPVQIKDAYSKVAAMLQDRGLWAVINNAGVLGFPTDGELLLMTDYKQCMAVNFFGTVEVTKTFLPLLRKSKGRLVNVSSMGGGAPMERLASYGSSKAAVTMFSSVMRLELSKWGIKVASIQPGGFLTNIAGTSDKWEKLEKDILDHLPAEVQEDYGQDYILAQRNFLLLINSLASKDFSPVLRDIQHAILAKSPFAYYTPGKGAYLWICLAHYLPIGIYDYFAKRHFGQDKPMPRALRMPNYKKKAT

SMILES	HSD17B13 Enzymatic Activity Relative Light Units (human HSD17B13)	HSD17B13 Enzymatic Activity Percent Estradiol Control (human HSD17B13)	inhibition of conversion of estrone to estradiol by HSD17B1 (HSD17B1 [1])	Percent of Control (POC), B10 (HSD17B10)	Percent of Control (POC), B5 (HSD17B5)	conversion of substrate catalyzed by HSD17B13 in cells [2]	Percent of Control (POC), B4 (HSD17B4)	Percent of Control (POC), B1 (HSD17B1 [3])	Percent of Control (POC), B11 (HSD17B11)	Percent of Control (POC), B2 (HSD17B2)
C[C@]12CC[C@H]3C(=CCc4cc(O)ccc43)[C@@H]1CCC2=O [Equilin]	186840 RLU	0.46%	can be inhibited by equilin							
C[C@]12CCC(O)C[C@@H]1CC[C@@H]1[C@@H]2CC[C@]2(C)[C@@H](O)CC[C@@H]12 (stereo partly drawn) [Androstanediol]	488440 RLU	5.73%		1.9%	216%	did not substantially catalyze the conversion	63.0%	0.3%	0.0%	46.9%
